Literature values, collected in patent US20090029020A1, “CYCLODEXTRIN INCLUSION COMPLEXES AND METHODS OF PREPARING SAME” (CARGILL, INCORPORATED, priority 2005, published 2009).
Like-named read-outs stand apart in the source and are kept apart here. Residues, ends and D or L forms follow the SMILES beside them.

Conditions: octanol/water partition coefficient

log P (Table 1A) | log P (Table 9) | SMILES
1.50 | 1.50 | CCOc1cc(C=O)ccc1O [ethyl vanillin]
1.48 | 1.48 | CC(=O)CCc1ccc(O)cc1 [raspberry ketone]
−2.15 | −2.15 | O=C(O)[C@@H]1CCCN1 [proline]
4.10 | 4.10 | Cc1ccc(C(C)C)cc1 [p-cymene]
 | 3.38 | C=CC(C)(O)CCC=C(C)C (stereo not drawn) [linalool]
0.82 | 0.82 | CC1=C(O)C(=O)C(C)O1 (stereo not drawn) [furaneol]
−0.74 | −0.74 | CO [methanol]
−0.19 | −0.19 | Cc1occc(=O)c1O [maltol]

The next lines start with the compound.

SMILES | log P (Table 1A) | log P (Table 9)
CCOC(=O)C(C)O (stereo not drawn) [ethyl lactate] | −0.18 | −0.18
CCc1occc(=O)c1O [ethyl maltol] | 0.30 | 0.30
CSC [dimethyl sulfide] | 0.92 | 0.92
CC=O [acetaldehyde] | −0.17 | −0.17
ClC1CCCCC1 [chlorocyclohexane (CCH), chlorocyclohexane] | 3.36 | 3.36
CCOC(=O)C(C)C [ethyl isobutyrate] | 1.77 | 1.77
CN(CC(=O)O)C(=N)N [creatine] | −3.72 | −3.72
COC(=O)[C@H](Cc1ccccc1)NC(=O)[C@@H](N)CC(=O)O [aspartame] (H-Asp-Phe-OMe) | 0.07 | 0.07
CCOC(=O)CC(C)C [ethyl isovalerate] | 2.26 | 2.26
C=C(C)[C@H]1CC=C(C)CC1 [limonene] | 4.83 | 4.83
CCOC(=O)CCC(C)=O [ethyl levulinate] | 0.29 | 0.29
CC(=O)C(C)=O [diacetyl] | −1.34 | −1.34
